Data reported in patent US12509449B2, “Anthelmintic compounds comprising a quinoline structure” (Intervet Inc., priority 2019, dated 2025).
pEC50: −log10 of the molar value.

What was measured:
[1] = target: T1, human Maxi K channel (BK channel), KCNMA1 (KCa1.1) and beta1 (KCNMB1) subunits (Homo sapiens, UniProt Q12791); assay: Agonistic activity at the human Maxi K channel (BK channel), membrane potential (FLIPR) in transfected CHO K1 cells; assay type: cell-based; settings: membrane potential dye, 70 mM KCl
T1 construct: expressed in transfected cells; host or cells: CHO K1
T1 sequence (Q12791 1-1178 isoform Q12791-5): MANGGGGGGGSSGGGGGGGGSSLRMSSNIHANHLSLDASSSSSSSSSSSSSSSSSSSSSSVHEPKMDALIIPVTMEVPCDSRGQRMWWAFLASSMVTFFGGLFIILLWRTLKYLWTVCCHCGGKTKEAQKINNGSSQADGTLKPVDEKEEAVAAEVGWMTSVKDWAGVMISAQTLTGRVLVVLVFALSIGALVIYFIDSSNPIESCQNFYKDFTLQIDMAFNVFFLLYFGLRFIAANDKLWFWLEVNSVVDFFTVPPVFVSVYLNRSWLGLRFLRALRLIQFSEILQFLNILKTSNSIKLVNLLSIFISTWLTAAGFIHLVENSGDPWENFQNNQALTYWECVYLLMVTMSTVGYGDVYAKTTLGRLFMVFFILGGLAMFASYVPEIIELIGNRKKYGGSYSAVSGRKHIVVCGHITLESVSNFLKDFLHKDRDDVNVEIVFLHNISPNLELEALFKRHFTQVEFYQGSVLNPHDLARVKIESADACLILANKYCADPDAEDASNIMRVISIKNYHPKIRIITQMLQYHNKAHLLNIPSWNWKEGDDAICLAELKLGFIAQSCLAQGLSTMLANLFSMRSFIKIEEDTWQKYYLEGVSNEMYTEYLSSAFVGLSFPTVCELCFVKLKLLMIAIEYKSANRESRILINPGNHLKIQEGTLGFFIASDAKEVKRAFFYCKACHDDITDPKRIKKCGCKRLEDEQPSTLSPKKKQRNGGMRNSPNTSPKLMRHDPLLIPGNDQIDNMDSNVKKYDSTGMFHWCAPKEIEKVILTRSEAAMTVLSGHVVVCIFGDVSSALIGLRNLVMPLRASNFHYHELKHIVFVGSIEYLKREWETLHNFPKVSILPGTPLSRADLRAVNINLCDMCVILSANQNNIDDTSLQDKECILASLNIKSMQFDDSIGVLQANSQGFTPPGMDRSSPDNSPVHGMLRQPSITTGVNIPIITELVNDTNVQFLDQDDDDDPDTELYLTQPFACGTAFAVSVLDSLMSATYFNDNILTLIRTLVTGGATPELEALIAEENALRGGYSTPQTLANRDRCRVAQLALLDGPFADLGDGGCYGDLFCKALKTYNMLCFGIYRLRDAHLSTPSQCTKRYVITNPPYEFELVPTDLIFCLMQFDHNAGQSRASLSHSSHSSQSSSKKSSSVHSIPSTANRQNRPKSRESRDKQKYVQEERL
T1 sequence (Q16558 whole entry partner): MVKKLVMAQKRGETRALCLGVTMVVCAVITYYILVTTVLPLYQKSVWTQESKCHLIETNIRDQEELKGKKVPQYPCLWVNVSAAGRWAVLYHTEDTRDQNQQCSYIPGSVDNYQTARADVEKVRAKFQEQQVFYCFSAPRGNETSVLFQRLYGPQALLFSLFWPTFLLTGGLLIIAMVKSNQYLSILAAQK
Excerpt: A CHO K1 cell line was stably transfected with the KCNMA1 (KCa1.1, U11058) and beta1 (KCNMB1) subunits of the human Maxi K channel (Ponte et al, Molecular Pharmacology 2012, 81(4), 567-577).
The complete measurement takes 150 s.

Ascaridia galli L3 = assay: In vitro assay Ascaridia galli larval stage 3, minimum effective concentration; assay type: cell-based; settings: 20 larvae per well, microscopic examination, read-out: MEC (minimum effective concentration) against Ascaridia galli L3
Excerpt: (§1) […] galli (intestinal roundworm of chicken), larval stage 3 (“L3”); and Oesophagostumum dentatum (nodular worm of swine), larval stages 3 and 4 (respectively “L3” and “L4”) where suspended in a nutrient medium and distributed to 96 well plates with 20 larvae per well. The wells were spiked DMSO solutions of the compounds with declining concentration.

[2] = target: Caenorhabditis elegans slo-1a (Caenorhabditis elegans, UniProt Q95V25); assay: Agonistic activity at C. elegans Slo-1a, membrane potential (FLIPR) in transfected CHO K1 cells; settings: EC50 agonistic activity at C. elegans Slo-1a, membrane potential dye, 70 mM KCl
Sequence of Caenorhabditis elegans slo-1a (Q95V25 whole entry): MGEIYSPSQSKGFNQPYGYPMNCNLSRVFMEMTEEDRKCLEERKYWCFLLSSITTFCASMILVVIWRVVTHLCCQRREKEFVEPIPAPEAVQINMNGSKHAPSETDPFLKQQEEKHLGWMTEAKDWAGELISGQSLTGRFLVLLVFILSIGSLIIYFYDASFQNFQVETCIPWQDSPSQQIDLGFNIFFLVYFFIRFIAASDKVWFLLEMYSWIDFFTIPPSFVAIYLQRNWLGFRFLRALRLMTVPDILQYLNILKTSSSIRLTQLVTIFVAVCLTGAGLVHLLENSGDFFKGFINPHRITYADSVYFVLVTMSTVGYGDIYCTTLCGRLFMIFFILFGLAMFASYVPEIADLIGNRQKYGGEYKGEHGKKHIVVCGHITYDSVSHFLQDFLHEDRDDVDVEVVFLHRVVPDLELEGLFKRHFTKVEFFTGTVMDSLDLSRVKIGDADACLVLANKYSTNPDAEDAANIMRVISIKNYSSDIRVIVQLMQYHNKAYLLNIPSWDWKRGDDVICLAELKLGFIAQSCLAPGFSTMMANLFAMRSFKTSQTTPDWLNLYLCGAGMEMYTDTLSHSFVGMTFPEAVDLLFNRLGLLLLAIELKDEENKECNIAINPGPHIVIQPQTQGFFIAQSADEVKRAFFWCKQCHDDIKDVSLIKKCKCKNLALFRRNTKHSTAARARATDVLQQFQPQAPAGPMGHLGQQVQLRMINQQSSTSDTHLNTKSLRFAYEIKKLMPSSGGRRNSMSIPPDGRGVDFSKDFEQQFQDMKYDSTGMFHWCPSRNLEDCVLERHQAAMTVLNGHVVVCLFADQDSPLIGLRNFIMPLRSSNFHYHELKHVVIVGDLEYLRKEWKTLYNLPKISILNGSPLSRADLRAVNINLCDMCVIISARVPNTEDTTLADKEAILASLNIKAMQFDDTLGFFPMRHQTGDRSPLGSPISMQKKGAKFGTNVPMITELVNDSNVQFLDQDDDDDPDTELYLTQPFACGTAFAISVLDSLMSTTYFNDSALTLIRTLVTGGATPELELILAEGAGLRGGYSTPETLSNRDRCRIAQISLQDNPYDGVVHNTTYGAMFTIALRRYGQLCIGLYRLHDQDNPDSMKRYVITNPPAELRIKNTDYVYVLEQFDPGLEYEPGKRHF

[3] = test system: Oesophagostumum dentatum L3; assay: In vitro assay Oesophagostumum dentatum larval stage 3, minimum effective concentration; assay type: cell-based; settings: 20 larvae per well, microscopic examination; read-out: MEC (minimum effective concentration) against Oesophagostumum dentatum L3
Excerpt: as §1

Row | pEC50 [1] | pEC50 [2] | SMILES | minimal effective concentration (Ascaridia galli L3) | minimal effective concentration [3]
1 | < 4.52 | > 6.00 | CN(C)c1c(NC(=O)C2CCOc3ccccc32)cnc2c(-c3cccc(Cl)c3Cl)cccc12 (stereo not shown) [Compound 12] | ≤ 50 µM | 
2 | < 4.52 | > 5.00 | CCc1c(NC(=O)c2cccc3ccccc23)cnc2c(-c3cc(Cl)cc(Cl)c3)cccc12 [Compound 199] | ≤ 50 µM | 
3 | < 4.52 | > 5.00 | CN(C)c1c(NC(=O)C2CCOc3ccccc32)cnc2c(-c3cc(F)cc(F)c3)cccc12 (stereo not shown) [Compound 38] | ≤ 50 µM | 
4 | < 4.52 | > 6.00 | COc1c(NC(=O)C2CCCc3ccccc32)cnc2c(-c3cccc(Cl)c3Cl)cccc12 (stereo not shown) [Compound 14] | ≤ 50 µM | 
5 | 4.52 to 5.00 | > 6.00 | CN(CCO)c1c(NC(=O)C2CCCc3ccccc32)cnc2c(-c3cccc(Cl)c3Cl)cccc12 (stereo not shown) [Compound 102] | ≤ 50 µM | 
6 | < 4.52 | > 6.00 | COc1c(NC(=O)C2CCCc3ccccc32)cnc2c(-c3cc(Cl)cc(Cl)c3)cccc12 (stereo not shown) [Compound 69] | ≤ 50 µM | 
7 | < 4.52 | > 6.00 | CN(C)c1c(NC(=O)[C@H]2CCc3ccccc32)cnc2c(-c3cc(Cl)cc(Cl)c3)c(Cl)ccc12 [Compound 180] | ≤ 50 µM | 
8 | < 4.52 | > 6.00 | CCOc1c(NC(=O)[C@H]2CCCc3ccccc32)cnc2c(-c3cc(Cl)cc(Cl)c3)cccc12 [Compound 154] | ≤ 50 µM | 
9 | < 4.52 |  | CC(C)Oc1c(NC(=O)C2CCCc3ccccc32)cnc2c(-c3cccc(Cl)c3Cl)c(F)ccc12 (stereo not shown) [Compound 122] | ≤ 50 µM | ≤ 50 µM
10 | < 4.52 |  | CC(C)Oc1c(NC(=O)C2CCOc3ccccc32)cnc2c(-c3cccc(Cl)c3Cl)cccc12 (stereo not shown) [Compound 32] | ≤ 50 µM | ≤ 50 µM
11 | < 4.52 | > 5.00 | COc1c(NC(=O)C2CCOc3ccccc32)cnc2c(-c3cccc(Cl)c3Cl)c(C)ccc12 (stereo not shown) [Compound 164] | ≤ 50 µM | 
12 | < 4.52 | > 5.00 | Cc1c(NC(=O)C2CCOc3ccccc32)cnc2c(-c3cc(Cl)cc(Cl)c3)cccc12 (stereo not shown) [Compound 194] | ≤ 50 µM | 
13 | < 4.52 |  | CC(C)Oc1c(NC(=O)C2CCCc3ccccc32)cnc2c(-c3cc(Cl)cc(Cl)c3)cccc12 (stereo not shown) [Compound 76, N-(8-(3,5-dichlorophenyl)-4-isopropoxyquinolin-3-yl)-1,2,3,4-tetrahydro-naphthalene-1-carboxamide] | ≤ 50 µM | 
14 | < 4.52 | > 5.00 | CN(C)c1c(NC(=O)C2CCOc3ccccc32)cnc2c(-c3cc(F)c(F)c(F)c3)cccc12 (stereo not shown) [Compound 39] | ≤ 50 µM | 
15 | < 4.52 | > 6.00 | CN(C)c1c(NC(=O)C2CCOc3ccccc32)cnc2c(-c3cc(Cl)cc(Cl)c3)cccc12 (stereo not shown) [Compound 67] | ≤ 50 µM | 
16 | < 4.52 | > 6.00 | CCc1c(NC(=O)C2CCCc3ccccc32)cnc2c(-c3cc(Cl)cc(Cl)c3)cccc12 (stereo not shown) [Compound 191] |  | ≤ 50 µM
17 | < 4.52 | > 5.00 | Cc1ccc(CC(=O)Nc2cnc3c(-c4cccc(Cl)c4Cl)cccc3c2N(C)C)cc1 [Compound 26] |  | ≤ 50 µM
18 | < 4.52 | > 6.00 | COc1c(NC(=O)[C@H]2CCCc3ccccc32)cnc2c(-c3cc(Cl)cc(Cl)c3)cccc12 [Compound 155] | ≤ 50 µM | 
19 | < 4.52 |  | CC(C)Oc1c(NC(=O)c2cccc3ccccc23)cnc2c(-c3cc(Cl)cc(Cl)c3)cccc12 [Compound 81] |  | ≤ 50 µM
20 | < 4.52 |  | CCOc1c(NC(=O)C2CCCc3ccccc32)cnc2c(-c3cc(Cl)cc(Cl)c3)c(F)ccc12 (stereo not shown) [Compound 114] |  | ≤ 50 µM
21 | < 4.52 |  | CC(C(=O)Nc1cnc2c(-c3cccc(Cl)c3Cl)cccc2c1N(C)C)c1cccc(N(C)C)c1 (stereo not shown) [Compound 50] | ≤ 50 µM | 
22 | < 4.52 |  | CCc1c(NC(=O)c2ccnc3ccccc23)cnc2c(-c3cccc(Cl)c3Cl)cccc12 [Compound 104] | ≤ 50 µM | 
23 | < 4.52 | > 5.00 | CC(C(=O)Nc1cnc2c(-c3cccc(Cl)c3Cl)cccc2c1N1CCOCC1)c1ccccc1 (stereo not shown) [Compound 21] | ≤ 50 µM | 
24 | < 4.52 | > 6.00 | COc1c(NC(=O)C2CCCc3ccccc32)cnc2c(-c3cc(Cl)cc(Cl)c3)c(F)ccc12 (stereo not shown) [Compound 113] | ≤ 50 µM | 

Row | pEC50 [1] | pEC50 [2] | SMILES | minimal effective concentration (Ascaridia galli L3) | minimal effective concentration [3]
25 | < 4.52 | > 6.00 | C=C(C)c1c(NC(=O)C2CCCc3ccccc32)cnc2c(-c3cccc(Cl)c3Cl)cccc12 (stereo not shown) [Compound 202] |  | ≤ 50 µM
26 | < 4.52 | > 6.00 | COc1c(NC(=O)C2CCc3ccccc32)cnc2c(-c3cccc(Cl)c3Cl)cccc12 (stereo not shown) [Compound 16] | ≤ 50 µM | 
27 | < 4.52 | > 5.00 | O=C(Nc1cnc2c(-c3cc(Cl)cc(Cl)c3)c(F)ccc2c1N1CCOCC1)C1CCc2ccccc21 (stereo not shown) [Compound 136] | ≤ 50 µM | 
28 | < 4.52 | > 6.00 | COc1c(NC(=O)C2CCOc3ccccc32)cnc2c(-c3cccc(Cl)c3Cl)cccc12 (stereo not shown) [Compound 15] | ≤ 50 µM | 
29 | < 4.52 | > 6.00 | Cc1ccc2c(N(C)C)c(NC(=O)[C@H]3CCc4ccccc43)cnc2c1-c1cc(Cl)cc(Cl)c1 [Compound 182] | ≤ 50 µM | 
30 | < 4.52 | > 6.00 | CCc1c(NC(=O)[C@H]2CCCc3ccccc32)cnc2c(-c3cc(Cl)cc(Cl)c3)cccc12 [Compound 197] | ≤ 50 µM | 
31 | < 4.52 | > 5.00 | Nc1c(NC(=O)C2CCOc3ccccc32)cnc2c(-c3cccc(Cl)c3Cl)cccc12 (stereo not shown) [Compound 84] | ≤ 50 µM | 
32 | 4.52 to 5.00 |  | CCNc1c(NC(=O)C2CCCc3ccccc32)cnc2c(-c3cccc(Cl)c3Cl)cccc12 (stereo not shown) [Compound 96] | ≤ 50 µM | 
33 | < 4.52 |  | CC(C)N(C)c1c(NC(=O)C2CCOc3ccccc32)cnc2c(-c3cccc(Cl)c3Cl)cccc12 (stereo not shown) [Compound 89] | ≤ 50 µM | 
34 | < 4.52 |  | C=C(C)c1c(NC(=O)c2cccc3ccccc23)cnc2c(-c3cc(Cl)cc(Cl)c3)cccc12 [Compound 200] | ≤ 50 µM | 
35 | < 4.52 | > 6.00 | CCOc1c(NC(=O)C2CCc3ccccc32)cnc2c(-c3cccc(Cl)c3Cl)cccc12 (stereo not shown) [Compound 57, N-(8-(2,3-dichlorophenyl)-4-ethoxyquinolin-3-yl)-2,3-dihydro-1H-indene-1-carboxamide] |  | ≤ 50 µM
36 | < 4.52 |  | CC(C)Oc1c(NC(=O)C2CCc3ccccc32)cnc2c(-c3cccc(Cl)c3Cl)c(F)ccc12 (stereo not shown) [Compound 142] | ≤ 50 µM | ≤ 50 µM
37 | < 4.52 | > 5.00 | CN(C)c1c(NC(=O)Cc2ccc(Cl)cc2)cnc2c(-c3cccc(Cl)c3Cl)cccc12 [Compound 25] |  | ≤ 50 µM
38 | < 4.52 | > 6.00 | CN(C)c1c(NC(=O)C2CCCc3ccccc32)cnc2c(-c3cc(Cl)cc(Cl)c3)c(F)ccc12 (stereo not shown) [Compound 115] | ≤ 50 µM | 
39 | < 4.52 |  | Cc1c(NC(=O)c2cccc3ccccc23)cnc2c(-c3cc(Cl)cc(Cl)c3)cccc12 [Compound 198] | ≤ 50 µM | 
40 | < 4.52 | > 5.00 | Cc1cccc(CC(=O)Nc2cnc3c(-c4cccc(Cl)c4Cl)cccc3c2N(C)C)c1 [Compound 35] |  | ≤ 50 µM
41 | < 4.52 | > 6.00 | CCc1c(NC(=O)C2CCOc3ccccc32)cnc2c(-c3cc(Cl)cc(Cl)c3)cccc12 (stereo not shown) [Compound 195] | ≤ 50 µM | 
42 | < 4.52 |  | O=C(Nc1cnc2c(-c3cc(Cl)cc(Cl)c3)cccc2c1O)c1cccc2ccccc12 [Compound 66] | ≤ 50 µM | 
43 | < 4.52 | > 6.00 | COCCN(C)c1c(NC(=O)C2CCCc3ccccc32)cnc2c(-c3cccc(Cl)c3Cl)cccc12 (stereo not shown) [Compound 103] |  | 
44 | < 4.52 | > 6.00 | CCc1c(NC(=O)C2CCOc3ccccc32)cnc2c(-c3cccc(Cl)c3Cl)cccc12 (stereo not shown) [Compound 105] |  | 
45 | < 4.52 |  | O=C(Nc1cnc2c(-c3cccc(Cl)c3Cl)cccc2c1O)C1CCOc2ccccc21 (stereo not shown) [Compound 112] |  | ≤ 50 µM
46 | < 4.52 | > 6.00 | CN(C)c1c(NC(=O)C2CCc3ccccc32)cnc2c(-c3cc(Cl)cc(Cl)c3)c(F)ccc12 (stereo not shown) [Compound 135] |  | 
47 | < 4.52 | > 6.00 | COc1c(NC(=O)C2CCOc3ccccc32)cnc2c(-c3cc(Cl)cc(Cl)c3)c(F)ccc12 (stereo not shown) [Compound 123] | ≤ 50 µM | 
